# Measurements taken from ChEMBL document CHEMBL5674860, “Optimized Dual-Glo Assay to identify co-culture-induced drug vulnerabilities in 3D CRC models” (2024).
# Key:
# Assay type in all cases: functional, Homo sapiens
# Parameters in all cases: dose or concentration left out as unconfirmed
# Colon cancer organoid [1] = experiment: Optimized Dual-Glo assay to identify co-culture induced drug vulnerabilities using donated chemical probes and chemogenomics kinase set in O06 CRC organoid and F06 CAF mono and co-culture. […] Cell viability is reported both mono and co-culture models.
# Colon cancer organoid [2] = experiment: Optimized Dual-Glo assay to identify co-culture induced drug vulnerabilities using donated chemical probes and chemogenomics kinase set in O14 CRC organoid and F14 CAF mono and co-culture. […] Cell viability is reported both mono and co-culture models.
# Colon cancer organoid [3] = experiment: Optimized Dual-Glo assay to identify co-culture induced drug vulnerabilities using donated chemical probes and chemogenomics kinase set in O20 CRC organoid and F20 CAF mono and co-culture. […] Cell viability is reported both mono and co-culture models.
# [4] = Culture type Co-Culture, Transduced with Lucferase2-P2A-EGFP lentivirus
# [5] = Culture type Co-Culture, Transduced with Renilla-dsRed lentivirus
# [6] = Culture type Mono-Culture, Transduced with Lucferase2-P2A-EGFP lentivirus
# [7] = Culture type Mono-Culture, Transduced with Renilla-dsRed lentivirus
smiles,measurement,setting,value
O=C(NOC[C@H](O)CO)c1ccc(F)c(F)c1Nc1ccc(I)cc1F [MIRDAMETINIB],Cell Viability,Colon cancer organoid [1]; [4],8.8965%
same,Cell Viability,Colon cancer organoid [1]; [5],49.9042%
same,Cell Viability,Colon cancer organoid [1]; [6],7.213%
same,Cell Viability,Colon cancer organoid [1]; [7],36.7215%
same,Cell Viability,Colon cancer organoid [2]; [4],4.141%
same,Cell Viability,Colon cancer organoid [2]; [5],39.571%
same,Cell Viability,Colon cancer organoid [2]; [6],2.016%
same,Cell Viability,Colon cancer organoid [2]; [7],25.7095%
same,Cell Viability,Colon cancer organoid [3]; [4],3.888%
same,Cell Viability,Colon cancer organoid [3]; [5],83.5811%
same,Cell Viability,Colon cancer organoid [3]; [6],5.164%
same,Cell Viability,Colon cancer organoid [3]; [7],45.8585%
CCS(=O)(=O)Nc1ccc(Oc2ccc(F)cc2F)c(-c2cn(C)c(=O)c3[nH]ccc23)c1 [MIVEBRESIB],Cell Viability,Colon cancer organoid [1]; [4],13.1828%
same,Cell Viability,Colon cancer organoid [1]; [5],272.686%
same,Cell Viability,Colon cancer organoid [1]; [6],12.7607%
same,Cell Viability,Colon cancer organoid [1]; [7],153.585%
same,Cell Viability,Colon cancer organoid [2]; [4],11.3223%
same,Cell Viability,Colon cancer organoid [2]; [5],338.596%
same,Cell Viability,Colon cancer organoid [2]; [6],8.201%
same,Cell Viability,Colon cancer organoid [2]; [7],180.439%
same,Cell Viability,Colon cancer organoid [3]; [4],5.728%
same,Cell Viability,Colon cancer organoid [3]; [5],64.2458%
same,Cell Viability,Colon cancer organoid [3]; [6],7.404%
same,Cell Viability,Colon cancer organoid [3]; [7],12.1973%
CN([C@@H]1CCc2c(CC(=O)O)c3ccccc3n2C1)S(=O)(=O)c1ccc(F)cc1 [MK-7246],Cell Viability,Colon cancer organoid [1]; [4],127.259%
same,Cell Viability,Colon cancer organoid [1]; [5],149.477%
same,Cell Viability,Colon cancer organoid [1]; [6],87.9847%
same,Cell Viability,Colon cancer organoid [1]; [7],110.238%
same,Cell Viability,Colon cancer organoid [2]; [4],76.0592%
same,Cell Viability,Colon cancer organoid [2]; [5],112.144%
same,Cell Viability,Colon cancer organoid [2]; [6],82.2127%
same,Cell Viability,Colon cancer organoid [2]; [7],107.31%
same,Cell Viability,Colon cancer organoid [3]; [4],94.6909%
same,Cell Viability,Colon cancer organoid [3]; [5],109.932%
same,Cell Viability,Colon cancer organoid [3]; [6],110.185%
same,Cell Viability,Colon cancer organoid [3]; [7],99.3239%
C[C@@H]1CN(c2cc(-c3nn(C)c4ccc(OC5(C)CC5)cc34)ncn2)C[C@H](C)O1 [MLi-2-NC],Cell Viability,Colon cancer organoid [1]; [4],21.8005%
same,Cell Viability,Colon cancer organoid [1]; [5],254.626%
same,Cell Viability,Colon cancer organoid [1]; [6],83.2909%
same,Cell Viability,Colon cancer organoid [1]; [7],98.8275%
same,Cell Viability,Colon cancer organoid [2]; [4],118.993%
same,Cell Viability,Colon cancer organoid [2]; [5],72.3586%
same,Cell Viability,Colon cancer organoid [2]; [6],109.582%
same,Cell Viability,Colon cancer organoid [2]; [7],102.606%
same,Cell Viability,Colon cancer organoid [3]; [4],112.711%
same,Cell Viability,Colon cancer organoid [3]; [5],86.6644%
same,Cell Viability,Colon cancer organoid [3]; [6],122.371%
same,Cell Viability,Colon cancer organoid [3]; [7],89.7102%
CC(=O)c1c(NS(C)(=O)=O)c2cc(-c3ccc(Cl)cc3)c(-c3ccc(Cl)cc3Cl)nc2n(C)c1=O [MRL-CB1-NC],Cell Viability,Colon cancer organoid [1]; [4],125.408%
same,Cell Viability,Colon cancer organoid [1]; [5],125.307%
same,Cell Viability,Colon cancer organoid [1]; [6],109.863%
same,Cell Viability,Colon cancer organoid [1]; [7],112.651%
same,Cell Viability,Colon cancer organoid [2]; [4],103.447%
same,Cell Viability,Colon cancer organoid [2]; [5],111.697%
same,Cell Viability,Colon cancer organoid [2]; [6],108.811%
same,Cell Viability,Colon cancer organoid [2]; [7],108.592%
same,Cell Viability,Colon cancer organoid [3]; [4],159.821%
same,Cell Viability,Colon cancer organoid [3]; [5],122.581%
same,Cell Viability,Colon cancer organoid [3]; [6],102.28%
same,Cell Viability,Colon cancer organoid [3]; [7],97.0964%
